This note sets out measurements from patent US20170094972A1, “Compounds and Compositions Having Knock-Down Activity Against Insect Pests” (priority 2015, published 2017).

Common to all, as to format: in vivo
Experiment [1] deals with Anopheles stephensi. As to the kind of experiment: 12 well plate knockdown test. Particulars: 1 h, read-out: Anopheles stephensi 1 hour % KD; for pest or weed control at 0.2 ppm: Rate 0.2 PPM; for pest or weed control at 2 ppm: Rate 2 PPM; for pest or weed control at 20 ppm: Rate 20 PPM; for pest or weed control at 200 ppm: Rate 200 PPM. Here is the method:
(§1) The individual wells of a twelve (12) well tissue culture plates were treated with 100 μl of an ethanol solution containing a test compound at a defined concentration. Once the deposits were dry, five non-blood fed adult female Aedes aegypti or Anopheles stephensi (between two to five day old) were added to each well, and sustained with a 10% sucrose solution in a cotton wool plug. Assessment of the knockdown after 1 hour was carried out. Where multiple replicates of a treatment have been undertaken, the mean of those replicates is reported.

The test system of the next experiment is Aedes aegypti. As to the kind of experiment: 12 well plate knockdown test. Particulars: 1 h, read-out: Aedes aegypti 1 hour % KD; for pest or weed control at 0.2 ppm: Rate 0.2 PPM; for pest or weed control at 2 ppm: Rate 2 PPM; for pest or weed control at 20 ppm: Rate 20 PPM; for pest or weed control at 200 ppm: Rate 200 PPM. How it is done: as §1
For experiment [2], the system named is Anopheles stephensi. As to the kind of experiment: 6 well plate test, knockdown after 1 hour and mortality after 24 and 48 hours. Further details: KD: unit not given here. Particulars: for KD: after 1 hour. How it is done: The individual wells of six (6) well tissue culture plates were treated with […] of an ethanol solution containing a test compound at a defined concentration. Once the deposits were dry, ten non-blood fed adult female Anopheles stephensi (between two to five day old) were added to each well, and sustained with a 10% sucrose solution in a cotton wool plug. Assessment of the knockdown after 1 hour (Tables B1-B10), and mortality after 24 and 48 hours (Tables B1-B4) was carried out.
In case of multiple tests, the mean value is reported.

As to `FC(F)(F)c1ccncc1C1=NCCN1` [I.20], in the experiment on Anopheles stephensi [1], the pest or weed control at 0.2 ppm was 20%, the pest or weed control at 2 ppm worked out at 60%, the pest or weed control at 20 ppm stood at 100% and the pest or weed control at 200 ppm came to 100%. For the same compound, in the experiment with Aedes aegypti, the pest or weed control at 0.2 ppm worked out at 0%, the pest or weed control at 2 ppm was found to be 40%, the pest or weed control at 20 ppm was determined as 100% and the pest or weed control at 200 ppm worked out at 100%.

Take `N/C(=N/C(=O)c1cnccc1C(F)(F)F)C1CC1` [I.19]: in the experiment with Anopheles stephensi [1], the pest or weed control at 0.2 ppm stood at 40%, the pest or weed control at 2 ppm came to 60%, the pest or weed control at 20 ppm was determined as 100% and the pest or weed control at 200 ppm came out at 100%. In addition, in the experiment on Aedes aegypti, the pest or weed control at 0.2 ppm amounted to 0%, the pest or weed control at 2 ppm was 100%, the pest or weed control at 20 ppm is 100% and the pest or weed control at 200 ppm turned out to be 100%.

With `CO/N=C(\C)CNC(=O)c1cnccc1C(F)(F)F` [I.18], in the experiment with Anopheles stephensi [1], the pest or weed control at 0.2 ppm turned out to be 0%, the pest or weed control at 2 ppm turned out to be 0%, the pest or weed control at 20 ppm is 0% and the pest or weed control at 200 ppm worked out at 40%. Also, in the experiment with Aedes aegypti, the pest or weed control at 0.2 ppm was 40%, the pest or weed control at 2 ppm was 100%, the pest or weed control at 20 ppm amounted to 100% and the pest or weed control at 200 ppm came to 100%.

For the compound `CNC(=O)c1cc(C#N)cc(C)c1NC(=O)c1cc(Br)nn1-c1ncccc1Cl` [Cyantraniliprole], the “knockdown after 1 hour, Alone” value in the experiment with Anopheles stephensi [2] (Table B8, 6.25 ppm) is 0; in the experiment on Anopheles stephensi [2] (Table B8, 12.5 ppm), 0; in the experiment with Anopheles stephensi [2] (Table B8, 25 ppm), 0; in the experiment on Anopheles stephensi [2] (Table B8, 50 ppm) it was 0; with Anopheles stephensi [2] (Table B8, 100 ppm) it was 0; with Anopheles stephensi [2] (Table B8, 200 ppm) it was 20.

On to `CC(C)n1nc(-c2cnccc2C(F)(F)F)oc1=O` [I.7], for which, in the experiment on Anopheles stephensi [1], the pest or weed control at 0.2 ppm stood at 0%, the pest or weed control at 2 ppm was determined as 0%, the pest or weed control at 20 ppm was 0% and the pest or weed control at 200 ppm stood at 20%. In the experiment with Aedes aegypti, the pest or weed control at 0.2 ppm turned out to be 100%, the pest or weed control at 2 ppm was 100%, the pest or weed control at 20 ppm is 100% and the pest or weed control at 200 ppm came to 100%.

In the case of `N/C(=N/C(=O)c1cnccc1C(F)(F)F)c1ncccn1` [I.14], in the experiment on Anopheles stephensi [1], the pest or weed control at 0.2 ppm stood at 40%, the pest or weed control at 2 ppm came to 40%, the pest or weed control at 20 ppm is 100% and the pest or weed control at 200 ppm was 100%. Also, in the experiment with Aedes aegypti, the pest or weed control at 0.2 ppm was 0%, the pest or weed control at 2 ppm stood at 100%, the pest or weed control at 20 ppm is 100% and the pest or weed control at 200 ppm was determined as 100%.

Regarding `CC(C#N)NC(=O)c1cnccc1C(F)(F)F` (stereo not shown) [I.11], in the experiment on Aedes aegypti, the pest or weed control at 0.2 ppm is 100%, the pest or weed control at 2 ppm is 100%, the pest or weed control at 20 ppm worked out at 100% and the pest or weed control at 200 ppm is 100%.

`CCN(CC)c1nc(C)cc(OP(=S)(OC)OC)n1` [pirimiphos-methyl]: the 24 hr mort with Anopheles stephensi [2] (Table B3, 0.03125 ppm alone) stood at 0.0; with Anopheles stephensi [2] (Table B3, 0.0625 ppm alone), 0.0; in the experiment with Anopheles stephensi [2] (Table B3, 0.125 ppm alone), 0.0; in the experiment with Anopheles stephensi [2] (Table B3, 0.25 ppm alone), 50.0; in the experiment with Anopheles stephensi [2] (Table B3, 0.5 ppm alone) it was 100.0; in the experiment on Anopheles stephensi [2] (Table B3, 1 ppm alone) it was 100.0. Further, the 48 hr mort amounted to 0.0 in the experiment with Anopheles stephensi [2] (Table B3, 0.03125 ppm alone); 0.0 in the experiment on Anopheles stephensi [2] (Table B3, 0.0625 ppm alone); 0.0 in the experiment on Anopheles stephensi [2] (Table B3, 0.125 ppm alone); 50.0 in the experiment with Anopheles stephensi [2] (Table B3, 0.25 ppm alone); 100.0 in the experiment on Anopheles stephensi [2] (Table B3, 0.5 ppm alone); 100.0 with Anopheles stephensi [2] (Table B3, 1 ppm alone). The KD is 0.0 with Anopheles stephensi [2] (Table B3, 0.03125 ppm alone); 0.0 in the experiment with Anopheles stephensi [2] (Table B3, 0.0625 ppm alone); 0.0 in the experiment on Anopheles stephensi [2] (Table B3, 0.125 ppm alone); 0.0 with Anopheles stephensi [2] (Table B3, 0.25 ppm alone); 0.0 in the experiment on Anopheles stephensi [2] (Table B3, 0.5 ppm alone); 10.0 in the experiment with Anopheles stephensi [2] (Table B3, 1 ppm alone). Further, the “knockdown after 1 hour, Alone” value stood at 0.0 in the experiment on Anopheles stephensi [2] (Table B10, 0.0625 ppm); 0.0 in the experiment with Anopheles stephensi [2] (Table B10, 0.125 ppm); 50.0 in the experiment with Anopheles stephensi [2] (Table B10, 0.25 ppm); 100.0 in the experiment on Anopheles stephensi [2] (Table B10, 0.5 ppm); 100.0 with Anopheles stephensi [2] (Table B10, 1 ppm).

On to `CC(NC(=O)c1cnccc1C(F)(F)F)C(N)=S` (stereo not shown) [I.26], for which, in the experiment with Anopheles stephensi [1], the pest or weed control at 0.2 ppm was 0%, the pest or weed control at 2 ppm worked out at 0%, the pest or weed control at 20 ppm was found to be 100% and the pest or weed control at 200 ppm came to 100%. For the same compound, in the experiment with Aedes aegypti, the pest or weed control at 0.2 ppm turned out to be 0%, the pest or weed control at 2 ppm came to 100%, the pest or weed control at 20 ppm amounted to 100% and the pest or weed control at 200 ppm came out at 100%.

For the compound `O=c1nc(-c2cnccc2C(F)(F)F)os1` [I.5], in the experiment with Anopheles stephensi [1], the pest or weed control at 0.2 ppm is 60%, the pest or weed control at 2 ppm worked out at 100%, the pest or weed control at 20 ppm came out at 100% and the pest or weed control at 200 ppm was 100%. Also, in the experiment with Aedes aegypti, the pest or weed control at 0.2 ppm is 100%, the pest or weed control at 2 ppm is 100%, the pest or weed control at 20 ppm turned out to be 100% and the pest or weed control at 200 ppm is 100%.

`CSCC/C(N)=N\C(=O)c1cnccc1C(F)(F)F` [I.21]: in the experiment with Anopheles stephensi [1], the pest or weed control at 0.2 ppm is 20%, the pest or weed control at 2 ppm came to 60%, the pest or weed control at 20 ppm is 100% and the pest or weed control at 200 ppm was found to be 100%. Besides, in the experiment on Aedes aegypti, the pest or weed control at 0.2 ppm amounted to 0%, the pest or weed control at 2 ppm was determined as 0%, the pest or weed control at 20 ppm turned out to be 0% and the pest or weed control at 200 ppm was 100%.

Turning to `CNC(=O)c1cc(Cl)cc(C)c1NC(=O)c1cc(Br)nn1-c1ncccc1Cl` [Chlorantraniliprole], the “knockdown after 1 hour, Alone” value was determined as 0 with Anopheles stephensi [2] (Table B9, 12.5 ppm); 0 with Anopheles stephensi [2] (Table B9, 25 ppm); 0 in the experiment on Anopheles stephensi [2] (Table B9, 50 ppm); 20 with Anopheles stephensi [2] (Table B9, 100 ppm); 40 with Anopheles stephensi [2] (Table B9, 200 ppm).

For `CCOCn1c(-c2ccc(Cl)cc2)c(C#N)c(Br)c1C(F)(F)F` [chlorfenapyr], the 24 hr mort was found to be 0.0 in the experiment with Anopheles stephensi [2] (Table B1, 0.0625 ppm alone); 0.0 with Anopheles stephensi [2] (Table B1, 0.125 ppm alone); 0.0 in the experiment on Anopheles stephensi [2] (Table B1, 0.25 ppm alone); 0.0 with Anopheles stephensi [2] (Table B1, 0.5 ppm alone); 6.7 with Anopheles stephensi [2] (Table B1, 1 ppm alone); 40.0 in the experiment on Anopheles stephensi [2] (Table B1, 2 ppm alone). In addition, the 24 hr mort with Anopheles stephensi [2] (Table B2, 0.0625 ppm alone) is on record as 0.0; with Anopheles stephensi [2] (Table B2, 0.125 ppm alone), 0.0; in the experiment on Anopheles stephensi [2] (Table B2, 0.25 ppm alone), 0.0; in the experiment with Anopheles stephensi [2] (Table B2, 0.5 ppm alone), 0.0; in the experiment on Anopheles stephensi [2] (Table B2, 1 ppm alone) it was 20.0; in the experiment with Anopheles stephensi [2] (Table B2, 2 ppm alone) it was 50.0. For the same compound, the 48 hr mort with Anopheles stephensi [2] (Table B1, 0.0625 ppm alone) was determined as 0.0; in the experiment with Anopheles stephensi [2] (Table B1, 0.125 ppm alone), 0.0; in the experiment on Anopheles stephensi [2] (Table B1, 0.25 ppm alone), 3.3; in the experiment on Anopheles stephensi [2] (Table B1, 0.5 ppm alone), 16.7; in the experiment on Anopheles stephensi [2] (Table B1, 1 ppm alone) it was 50.0; in the experiment with Anopheles stephensi [2] (Table B1, 2 ppm alone) it was 90.0. Moreover, the 48 hr mort turned out to be 0.0 with Anopheles stephensi [2] (Table B2, 0.0625 ppm alone); 0.0 with Anopheles stephensi [2] (Table B2, 0.125 ppm alone); 0.0 in the experiment with Anopheles stephensi [2] (Table B2, 0.25 ppm alone); 0.0 with Anopheles stephensi [2] (Table B2, 0.5 ppm alone); 40.0 in the experiment with Anopheles stephensi [2] (Table B2, 1 ppm alone); 100.0 in the experiment with Anopheles stephensi [2] (Table B2, 2 ppm alone). The KD with Anopheles stephensi [2] (Table B1, 0.0625 ppm alone) was found to be 0.0; in the experiment with Anopheles stephensi [2] (Table B1, 0.125 ppm alone), 0.0; in the experiment with Anopheles stephensi [2] (Table B1, 0.25 ppm alone) it was 0.0; with Anopheles stephensi [2] (Table B1, 0.5 ppm alone) it was 0.0; in the experiment on Anopheles stephensi [2] (Table B1, 1 ppm alone), 0.0; with Anopheles stephensi [2] (Table B1, 2 ppm alone), 0.0. Moreover, the KD in the experiment with Anopheles stephensi [2] (Table B2, 0.0625 ppm alone) is 0.0; in the experiment with Anopheles stephensi [2] (Table B2, 0.125 ppm alone), 0.0; in the experiment on Anopheles stephensi [2] (Table B2, 0.25 ppm alone), 0.0; with Anopheles stephensi [2] (Table B2, 0.5 ppm alone) it was 0.0; with Anopheles stephensi [2] (Table B2, 1 ppm alone) it was 0.0; with Anopheles stephensi [2] (Table B2, 2 ppm alone), 0.0.

Turning to `CC1(C)[C@H](C(=O)O[C@H](C#N)c2cccc(Oc3ccccc3)c2)[C@@H]1/C=C(\Cl)C(F)(F)F` (racemic) [Lambda-cyhalothrin], the “knockdown after 1 hour, Alone” value with Anopheles stephensi [2] (Table B5, 0.025 ppm) worked out at 0; in the experiment with Anopheles stephensi [2] (Table B5, 0.05 ppm) it was 0; with Anopheles stephensi [2] (Table B5, 0.1 ppm), 0; in the experiment with Anopheles stephensi [2] (Table B5, 0.2 ppm), 40.
